According to ChEMBL document CHEMBL1641439, “The effect of 5-substitution on the electrochemical behavior and antitubercular activity of PA-824” (2011):
In brackets after ≈: the same amount, converted by molar mass.

Tests used:
[1] = system: Mycobacterium tuberculosis; experiment: Antituberculosis activity against Mycobacterium tuberculosis H37Rv F420 mutant after 2 weeks; type: functional
[2] = system: Mycobacterium tuberculosis; experiment: Antituberculosis activity against Mycobacterium tuberculosis H37Rv Ddn mutant after 2 weeks; type: functional

| Compound | MIC [1] [µM] | MIC [2] [µM] |
| --- | --- | --- |
| N#Cc1c([N+](=O)[O-])nc2n1C[C@H](OCc1ccc(OC(F)(F)F)cc1)CO2 | >100 | >100 |
| O=[N+]([O-])c1nc2n(c1Cl)C[C@H](OCc1ccc(OC(F)(F)F)cc1)CO2 | 25 (≈ 9.84 µg/mL) | 50 (≈ 19.7 µg/mL) |
| Nc1c([N+](=O)[O-])nc2n1C[C@H](OCc1ccc(OC(F)(F)F)cc1)CO2 | >100 | >100 |
| O=[N+]([O-])c1nc2n(c1Br)C[C@H](OCc1ccc(OC(F)(F)F)cc1)CO2 | 25 (≈ 11 µg/mL) | 25 (≈ 11 µg/mL) |
| O=[N+]([O-])c1cn2c(n1)OC[C@@H](OCc1ccc(OC(F)(F)F)cc1)C2 [PRETOMANID] | >100 | >100 |
